Activity calls are given as the source filed them. No cut-off for these calls is given here. Positions of bridges follow the written chain, without caps; N, C: chain ends. Non-standard residues stand in square brackets, D forms with d. Residues, ends and D or L forms follow the SMILES beside them. *: point of attachment. NMe2Val = CC(C)[C@@H](C(=O)*)N(C)C; NMeLys(Me) = CNCCCC[C@H](NC)C(=O)O; NMeI = CC[C@H](C)[C@H](NC)C(=O)O; NMeT = CN[C@H](C(=O)O)[C@@H](C)O; NMeL = CN[C@@H](CC(C)C)C(=O)O; NMeDap = CN[C@@H](CN)C(=O)O; dHiv = CC(C)[C@@H](O)C(=O)O; NMeA = CN[C@@H](C)C(=O)O; dNMeA = CN[C@H](C)C(=O)O
Assays:
Assay type in all cases: functional, cell-based
SF-268 [1] = experiment: Downregulation of VEGF-A protein secretion level in human SF-268 cells for 24 hrs by ELISA analysis; details: dose 30-100 nM
SF-268 [2] = experiment: Inhibition of endogenously-secreted VEGF-A in human SF-268 cells incubated for 24 hrs by ELISA assay; details: dose 30-100 nM
U-87 MG [3] = experiment: Antiproliferative activity against human U-87 MG cells expressing GLuc assessed as as inhibition of GLuc secretion incubated for 18 hrs by CellTiter-Glo Luminescent Cell Viability Assay; details: U-87MG ATCC
U-87 MG [4] = experiment: Antiproliferative activity against human U87 cells expressing GLuc assessed as inhibition of GLuc secretion incubated for 18 hrs by CellTiter-Glo Luminescent Cell Viability Assay; details: U-87MG ATCC, dose 0.1-10 µM
U-87 MG [5] = experiment: Antiproliferative activity against human U-87MG cells expressing GLuc assessed as cell viability at 0.0003 to 300 nM incubated for 18 hrs by CellTiter-Glo Luminescent Cell Viability Assay; details: U-87MG ATCC, dose 0.0003-300 nM
SF-268 [6] = experiment: Downregulation of VEGF-A protein secretion level in human SF-268 cells at 30 to 300 nM for 24 hrs by ELISA analysis; details: dose 30-300 nM

Structure (SMILES) | Activity (SF-268 [1]) | inhibition (SF-268 [2]) | inhibition (U-87 MG [3]) | Activity (U-87 MG [4]) | inhibition (U-87 MG [5]) | Activity (SF-268 [6])
CC[C@H](C)[C@H]1C(=O)N[C@@H](C)C(=O)N(C)[C@@H](CC(C)C)C(=O)N[C@@H](Cc2ccc(OC)cc2)C(=O)N(C)[C@H](C)C(=O)N[C@H](C)[C@H](N(C)C(=O)[C@H](CC(C)C)N(C)C(=O)[C@H](COC)N(C)C(=O)[C@H](OC(=O)[C@H](C(C)C)N(C)C)C(C)C)C(=O)N(C)[C@@H](COC)C(=O)N1C | Dose-Dependent Effect | Dose-Dependent Effect | Dose-Dependent Effect | Dose-Dependent Effect | inactive | –
CC[C@H](C)[C@H]1C(=O)N[C@@H](C)C(=O)N(C)[C@@H](CC(C)C)C(=O)N[C@@H](Cc2ccc(OC)cc2)C(=O)N(C)[C@H](C)C(=O)NC[C@H](N(C)C(=O)[C@H](CC(C)C)N(C)C(=O)[C@H](C)N(C)C(=O)[C@H](OC(=O)[C@H](C(C)C)N(C)C)C(C)C)C(=O)N(C)[C@@H](C)C(=O)N1C (NMe2Val-[dHiv][NMeA][NMeL][NMeDap][NMeA][NMeI]A[NMeL]Y(Me)[dNMeA]; lactam 4-C) | – | – | Dose-Dependent Effect | Dose-Dependent Effect | inactive | –
CC[C@H](C)[C@H]1C(=O)N[C@@H](C)C(=O)N(C)[C@@H](CC(C)C)C(=O)N[C@@H](Cc2ccc(OC)cc2)C(=O)N(C)[C@H](C)/C=C/[C@H](C)[C@H](N(C)C(=O)[C@H](CC(C)C)N(C)C(=O)[C@H](C)N(C)C(=O)[C@H](OC(=O)[C@H](C(C)C)N(C)C)C(C)C)C(=O)N(C)[C@@H](C)C(=O)N1C | – | – | Dose-Dependent Effect | Dose-Dependent Effect | inactive | –
CC[C@H](C)[C@H]1C(=O)N[C@@H](C)C(=O)N(C)[C@@H](CC(C)C)C(=O)N[C@@H](Cc2ccc(OC)cc2)C(=O)N(C)[C@H](C)CC[C@H](C)[C@H](N(C)C(=O)[C@H](CC(C)C)N(C)C(=O)[C@H](C)N(C)C(=O)[C@H](OC(=O)[C@H](C(C)C)N(C)C)C(C)C)C(=O)N(C)[C@@H](C)C(=O)N1C | – | Dose-Dependent Effect | Dose-Dependent Effect | Dose-Dependent Effect | inactive | Dose-Dependent Effect
CC[C@H](C)[C@H]1C(=O)N[C@@H](C)C(=O)N(C)[C@@H](CC(C)C)C(=O)N[C@@H](Cc2ccc(OC)cc2)C(=O)N(C)CCCC[C@H](N(C)C(=O)[C@H](CC(C)C)N(C)C(=O)[C@H](C)N(C)C(=O)[C@H](OC(=O)[C@H](C(C)C)N(C)C)C(C)C)C(=O)N(C)[C@@H](C)C(=O)N1C (NMe2Val-[dHiv][NMeA][NMeL][NMeLys(Me)][NMeA][NMeI]A[NMeL]Y(Me); lactam 4-C) | – | Dose-Dependent Effect | Dose-Dependent Effect | Dose-Dependent Effect | inactive | Dose-Dependent Effect
CC[C@H](C)[C@H]1C(=O)N[C@@H](C)C(=O)N(C)[C@@H](CC(C)C)C(=O)N[C@@H](Cc2ccc(OC)cc2)C(=O)N(C)[C@H](C)C(=O)N[C@H](C)[C@H](N(C)C(=O)[C@H](CC(C)C)N(C)C(=O)[C@H](C)N(C)C(=O)[C@H](OC(=O)[C@H](C(C)C)N(C)C)C(C)C)C(=O)N(C)[C@@H](C)C(=O)N1C | – | – | Dose-Dependent Effect | Dose-Dependent Effect | inactive | –
CC[C@H](C)[C@H]1C(=O)N[C@@H](C)C(=O)N(C)[C@@H](CC(C)C)C(=O)N[C@@H](Cc2ccc(OC)cc2)C(=O)N(C)[C@H](C)C(=O)N(C)C[C@H](N(C)C(=O)[C@H](CC(C)C)N(C)C(=O)[C@H](C)N(C)C(=O)[C@H](OC(=O)[C@H](C(C)C)N(C)C)C(C)C)C(=O)N(C)[C@@H](C)C(=O)N1C | – | – | Dose-Dependent Effect | – | inactive | –
CC[C@H](C)[C@H]1C(=O)N[C@@H](C)C(=O)N(C)[C@@H](CC(C)C)C(=O)N[C@@H](Cc2ccc(-c3ccccc3)cc2)C(=O)N(C)[C@H](C)C(=O)N[C@H](C)[C@H](N(C)C(=O)[C@H](CC(C)C)N(C)C(=O)[C@H](COC)N(C)C(=O)[C@H](OC(=O)[C@H](C(C)C)N(C)C)C(C)C)C(=O)N(C)[C@@H](COC)C(=O)N1C | – | – | Dose-Dependent Effect | Dose-Dependent Effect | inactive | –
CC[C@H](C)[C@H]1C(=O)N[C@@H](C)C(=O)N(C)[C@@H](CC(C)C)C(=O)N[C@@H](Cc2ccc(OC)cc2)C(=O)N(C)[C@H](C)C(=O)O[C@H](C)[C@H](N(C)C(=O)[C@H](CC(C)C)N(C)C(=O)[C@H](C)N(C)C(=O)[C@H](OC(=O)[C@H](C(C)C)N(C)C)C(C)C)C(=O)N(C)[C@@H](C)C(=O)N1C (NMe2Val-[dHiv][NMeA][NMeL][NMeT][NMeA][NMeI]A[NMeL]Y(Me)[dNMeA]; ester 4-C) | – | – | Dose-Dependent Effect | Dose-Dependent Effect | inactive | –

— ChEMBL document CHEMBL5365553, “Design of Synthetic Surrogates for the Macrolactone Linker Motif in Coibamide A” (ACS Med Chem Lett, 2023)
